Experimental data as given in PubChem BioAssay (NCI).
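Dose response: 5 concentrations. Exposure: 48 h. Format: 96-well plates. Endpoint: linear interpolation; highest concentration if not reached. At the TGI there is no net growth.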 Activity calls are given as the source filed them. No stated cut-off is given here; in the data, active means GI50 below about 0.43 µM; inactive means the rest.

Columns and labels:
Assay in all cases: growth of human tumour cells (NCI), 48 h
SF-539 CNS = tested on: SF-539 CNS
HOP-62 NSCLC = tested on: HOP-62 NSCLC
K-562 leukemia = tested on: K-562 leukemia
HCT-116 colon = tested on: HCT-116 colon
IGROV1 ovarian = tested on: IGROV1 ovarian
NCI/ADR-RES ovarian = tested on: NCI/ADR-RES ovarian
DU-145 prostate = tested on: DU-145 prostate
HS 578T breast = tested on: HS 578T breast
HT29 colon = tested on: HT29 colon

Row | Structure (SMILES) | TGI (SF-539 CNS) | TGI (HOP-62 NSCLC) | TGI (K-562 leukemia) | TGI (HCT-116 colon) | TGI (IGROV1 ovarian) | TGI (NCI/ADR-RES ovarian) | TGI (DU-145 prostate) | TGI (HS 578T breast) | TGI (HT29 colon) | outcome (SF-539 CNS)
1 | O=C(C(Cl)=C(N1CCOCC1)N1CCOCC1)C(Cl)Cl | > 100 µM | > 100 µM | > 100 µM | > 100 µM | > 100 µM | > 100 µM | > 100 µM | > 100 µM | > 100 µM | 
2 | O=c1[nH]nc(Cc2ccccc2)n1/N=C/c1ccncc1 | > 100 µM | > 100 µM | > 100 µM | > 100 µM | > 100 µM | > 100 µM | > 100 µM | > 100 µM | > 100 µM | 
3 | CCOC(=O)C1CCC(=O)N1C(=O)c1ccccc1 (stereo not drawn) | > 100 µM | > 100 µM | > 100 µM | > 100 µM | > 100 µM | > 100 µM | > 100 µM | > 100 µM | > 100 µM | 
4 | c1c2c(cc(-n3nnc4c3CCCCCC4)c1-n1nnc3c1CCCCCC3)CCCCCC2 |  | 39 µM | 40.6 µM | 21.6 µM | 41.2 µM |  |  |  | 19.8 µM | inactive
5 | CN(C)CCNC(=O)c1cccc2nc(-c3ccccc3)oc12 | > 100 µM | > 100 µM | > 100 µM | > 100 µM | > 100 µM | 99.6 µM |  |  | > 100 µM | 
6 | Cc1ccc(/C=C2\Cc3c(C)cc(C)cc3C2=O)c(C(=O)O)c1 | 46.2 µM | > 100 µM | > 100 µM | > 100 µM | > 100 µM | > 100 µM | > 100 µM | > 100 µM | > 100 µM | 
7 | O=C1CSC2=NC3=C(COC/C3=C\c3ccc(Br)cc3)C(c3ccc(Br)cc3)N12 (stereo not drawn) | > 100 µM | > 100 µM | > 100 µM | > 100 µM | > 100 µM | > 100 µM | > 100 µM | > 100 µM |  | 
8 | Nc1nn2c(=O)c3ccccc3nc2s1 | > 100 µM | > 100 µM | 88.7 µM | > 100 µM | > 100 µM | > 100 µM | > 100 µM | > 100 µM | > 100 µM | 
9 | CCOC(=O)c1nnsc1NN | > 100 µM | > 100 µM |  | > 100 µM | > 100 µM | > 100 µM | > 100 µM | > 100 µM | > 100 µM | 
10 | O=c1[nH]c(Nc2cccc(CO)c2)nc2nc[nH]c12 | > 100 µM | > 100 µM | > 100 µM | > 100 µM | > 100 µM | > 100 µM | > 100 µM | > 100 µM | > 100 µM | 
11 | CN(C)CC1CCC(CN(C)C)C1=O (stereo not drawn) | 33.3 µM | > 68 µM | > 20.3 µM | 5.23 µM | 15.4 µM | 63.8 µM |  | 10.2 µM | 16.2 µM | 
12 | C[n+]1c(-c2ccc(/C=C/C=N\NC(=O)c3ccc(C(=O)N/N=C\C=C\c4ccc(-c5cn6ccccc6[n+]5C)cc4)cc3)cc2)cn2ccccc21 | > 100 µM | > 100 µM | > 51.2 µM | > 100 µM | > 100 µM | > 100 µM | 97.6 µM | > 100 µM | > 100 µM | 
13 | CC(=O)OCc1c(O)c2c(c(O)c1COC(C)=O)C(=O)C=CC2=O | 35.7 µM | 37.4 µM | > 100 µM | 25.6 µM | 30.5 µM |  |  |  | 31.6 µM | 
14 | COc1ccc(N(C(=O)Nc2ccc(Cl)c(Cl)c2)C2c3cccn3C(=O)N2c2ccc(Cl)c(Cl)c2)cc1 (stereo not drawn) | > 100 µM |  | > 100 µM | > 100 µM | > 100 µM | > 100 µM | > 100 µM | > 100 µM | > 100 µM | 
15 | CC(C)(C)c1cc(C(=O)/C=C/c2ccc3c(c2)OCO3)cc(C(C)(C)C)c1O | 20 µM | > 100 µM | > 39.1 µM | 24.5 µM | > 100 µM | 16.8 µM | > 58 µM | > 27.1 µM | 28 µM | 
16 | CCOC(=O)c1cn2c(n1)sc1cc(Cl)cc(Cl)c12 | > 100 µM | > 100 µM | > 100 µM | > 100 µM | > 100 µM | > 100 µM | > 100 µM | > 100 µM | > 100 µM | 
17 | CCCCCCCCCc1nn2c(Cc3ccccc3)nnc2s1 | 33.4 µM | 39.6 µM | > 100 µM | 31.9 µM |  | 32.7 µM | 51.4 µM | 38.5 µM |  | 
18 | O=c1cc(-c2ccccc2)oc2c(-c3cc(Cl)cc4c(=O)cc(-c5ccccc5)oc34)cc(Cl)cc12 | 44.4 µM | > 100 µM | > 100 µM |  | > 100 µM | > 100 µM | > 100 µM | > 100 µM | > 100 µM | 
19 | C=C1c2nc3ccccc3n2C=C(c2ccc(Cl)cc2)N1c1ccc(OC)cc1 | 19.2 µM |  | > 100 µM | 21.6 µM | 26.1 µM | 14 µM | 61.8 µM |  |  | 
